Source: US7514419B2, “Phosphorus-containing thyromimetics” (Metabasis Therapeutics, Inc., priority 2003, dated 2009)
pKi: −log10 of the molar value.

What was measured:
ZDF rats [1] = conditions: rat, in vivo, 28 days
Method: Compound 18 was administered at doses up to 5 mg/kg/d. Compound cis-13-1 was administered at doses up to 50 mg/kg/d. We reasoned that the ZDF rat, as a metabolically challenged animal model, would be more sensitive to the potential adverse cardiac effects of thyromimetics than a normal, cholesterol-fed rat. At sacrifice, heart rate, and the first derivative of left ventricular pressure (LV dP/dt) were measured with a Millar catheter inserted into the left ventricle.

[2] = tested on: Hypercholesterolemic rats; experiment: Cholesterol lowering in hypercholesterolemic rats; assay type: in vivo, rat; conditions: 0.5 mg/kg/d orally
Sprague Dawley (SD) rat = experiment: Cardiovascular activity in the Sprague Dawley rat, 7 days oral; assay type: in vivo; conditions: SD rats, Compound 18 1 mg/kg, Compound cis-13-1 1-50 mg/kg/day
Source text: Method: […] The control group (n=6) was given vehicle only. […] On the 7th day after the start of dosing, animals were anesthetized with Isofluorane and the left ventricle cannulated with a high fidelity catheter tip transducer via the right carotid artery. Left ventricular pressure, its first derivative (LVdP/dt), lead I ECG, and heart rate (HR) triggered off the ECG waveform, were digitally recorded. LV dP/dt is a well accepted measure of ionotropic state. Systolic and diastolic aortic pressures were measured by retracting the catheter into the proximal aorta.

Normal rats = experiment: Hepatic triglyceride content in normal rats infused for 7 days; assay type: in vivo, rat; conditions: normal rats chronically infused for 7 days
Method: Normal rats were chronically infused with Compound 7 for 7 days. Liver triglycerides were analyzed following lipid extraction by the Bligh Dyer method (Bligh EG and Dyer WJ, A rapid method of total lipid extraction and purification. Can J Med Sci. 1959 (August); 37(8):911-7, incorporated herein by reference). Total triglycerides were analyzed in the liver extracts by an enzymatic assay (Thermo Electron Corporation). Total lipid was normalized to initial liver weight and triglyceride content was normalized to liver weight. […] There was a 4% reduction in liver triglycerides for this group and the results were not statistically significant.

ZDF rats [3] = experiment: Hepatic triglyceride content and steatosis in ZDF rats, oral 28 days; assay type: in vivo, rat
Method: In other experiments, Compound 7 was orally administered to ZDF rats for 28 days. Liver triglycerides were analyzed as described above. Total liver triglycerides were reduced in the treated animals 42% in the 2.5 mg/kg/d group. […] The hepatic steatosis is a well known and described phenomenon for the ZDF rat, and therefore not attributable to vehicle treatment.

ZDF rats [4] = experiment: Circulating TSH, ZDF rats, 28 days; assay type: in vivo, rat; conditions: 50 mg/kg/d for 28 days
Source text: (§1) Another concern with synthetic thyromimetics is the suppression of the endogenous thyroid axis. Thyroid homeostasis is maintained by the action of thyroid releasing hormone (TRH) and thyroid stimulating hormone (TSH). […] Although this particular side effect has been noted, it has typically been treated with less concern than the cardiac safety issues. […] Therefore previous investigators have measured TSH levels when testing synthetic thyromimetics and have used a 30% decrease of TSH as the denominator in their therapeutic index calculations. […] Therefore, both compounds suppress TSH as doses lower than that required to decrease circulating cholesterol. […] However, 0.2 mg/kg/d of Compound 18 in 28 day treated ZDF rats, decreased TSH levels greater than 90%.

mice = experiment: Circulating TSH, mice, 77 days; assay type: in vivo, mouse; conditions: 10 mg/kg/d for 77 days
Source text: as §1

[5] = tested on: normal rats maintained on a cholesterol-containing diet; experiment: Continuous infusion study in rats on a cholesterol-containing diet; conditions: continuous infusion 1 mg/kg/day
Method: Screening for thyromimetic activity was performed in normal rats maintained on a cholesterol-containing diet.

cholesterol-fed rat [6] = experiment: Subacute study in cholesterol-fed rats, IP once-a-day for seven days: serum cholesterol, heart weight, heart mGPDH
Method: The cholesterol-fed rat is an animal model of hypercholesterolemia generated by feeding the animals a diet with high cholesterol content.
Methods: Rats were maintained on a diet containing 1.5% cholesterol and 0.5% cholic acid for 2 weeks prior to initiation of treatment. Serum cholesterol values were assessed and the animals randomized into groups for treatment.

[7] = target: T1, human thyroid hormone receptors TRα1 (Homo sapiens, UniProt P10827); experiment: Receptor binding: labeled T3 binding/displacement, gel filtration and scintillation proximity assay (SPA); conditions: read-out: Ki TRα
T1 sequence (P10827 1-410 isoform P10827-2): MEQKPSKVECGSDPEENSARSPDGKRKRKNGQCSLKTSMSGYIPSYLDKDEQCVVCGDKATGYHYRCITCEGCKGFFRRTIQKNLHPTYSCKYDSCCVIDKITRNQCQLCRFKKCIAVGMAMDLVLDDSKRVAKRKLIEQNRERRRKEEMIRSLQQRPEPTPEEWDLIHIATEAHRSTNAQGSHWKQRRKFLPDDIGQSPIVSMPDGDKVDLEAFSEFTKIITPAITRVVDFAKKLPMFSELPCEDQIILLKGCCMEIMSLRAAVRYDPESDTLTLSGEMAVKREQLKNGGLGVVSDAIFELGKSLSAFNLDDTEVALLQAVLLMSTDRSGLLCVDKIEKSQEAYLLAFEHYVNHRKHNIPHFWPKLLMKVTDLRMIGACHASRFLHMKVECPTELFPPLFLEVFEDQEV
T1 sequence (P19793 1-462 partner): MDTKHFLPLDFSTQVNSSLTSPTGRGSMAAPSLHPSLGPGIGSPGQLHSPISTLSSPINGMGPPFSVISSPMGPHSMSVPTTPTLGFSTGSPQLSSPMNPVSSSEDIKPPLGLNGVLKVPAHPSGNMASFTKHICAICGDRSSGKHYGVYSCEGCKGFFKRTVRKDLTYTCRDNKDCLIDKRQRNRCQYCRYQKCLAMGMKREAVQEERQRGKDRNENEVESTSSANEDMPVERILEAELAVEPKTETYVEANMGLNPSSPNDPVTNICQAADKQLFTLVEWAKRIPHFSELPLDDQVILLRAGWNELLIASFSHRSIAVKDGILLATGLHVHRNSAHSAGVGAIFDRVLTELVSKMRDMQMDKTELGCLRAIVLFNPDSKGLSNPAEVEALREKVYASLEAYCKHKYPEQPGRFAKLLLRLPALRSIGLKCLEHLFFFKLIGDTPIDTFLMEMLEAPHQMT

[8] = target: T2, human thyroid hormone receptors TRβ1 (Homo sapiens, UniProt P10828); experiment: as above; conditions: read-out: Ki TRβ
T2 sequence (P10828 1-461): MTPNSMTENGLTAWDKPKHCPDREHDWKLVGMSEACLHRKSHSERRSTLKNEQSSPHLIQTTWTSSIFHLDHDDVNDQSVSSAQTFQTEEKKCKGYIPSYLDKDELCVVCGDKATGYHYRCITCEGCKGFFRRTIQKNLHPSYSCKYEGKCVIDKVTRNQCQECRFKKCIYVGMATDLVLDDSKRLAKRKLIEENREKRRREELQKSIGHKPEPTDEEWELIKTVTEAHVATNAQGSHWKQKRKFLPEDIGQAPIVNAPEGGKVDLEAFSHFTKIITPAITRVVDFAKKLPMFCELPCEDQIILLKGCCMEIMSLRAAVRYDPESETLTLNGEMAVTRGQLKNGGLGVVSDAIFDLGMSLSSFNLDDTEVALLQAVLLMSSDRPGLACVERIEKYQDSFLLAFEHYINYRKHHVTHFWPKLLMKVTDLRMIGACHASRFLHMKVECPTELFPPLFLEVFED
T2 sequence (P19793 1-462 partner): T1 sequence (P19793 1-462 partner)

cholesterol fed rats = experiment: Subacute study in cholesterol fed rats, PO once a day for seven days: cholesterol reduction, heart weight; assay type: in vivo, rat; conditions: 1 mg/kg/day PO once a day for seven days
Method: Methods: […] Compound 13-1-cis and Compound 18 were administered PO once a day for seven days. Serum TSH is measured using an enzyme immunoassay (EIA) kit designed for rat TSH (Amersham Pharmacia Biotech, Arlington Heights, Ill.). Expression levels of liver genes (e.g., the LDL-receptor, apoB, cpt-1, spot14 and apoAI) and heart genes ([…]2, HCN2,Kvl.5, MHCα, MHCβ, Alpha1c) are quantified by Northern blot analysis or by RT-PCR. […] Oligonucleotides specific for the complementary gene sequences are used to make ^32P-labeled probes (Multiprime DNA labeling systems, Amersham Pharmacia Biotech). Following hybridization of the probes to the nylon membranes, radioactivity is assessed on a blue film (Eastman Kodak Co,), and the resulting image quantified using the appropriate software. RT-PCR is performed using an iCycler instrument (Biorad) using appropriate primers by means of standard methodology [[…] et al. (2000) Life Sciences 66: 1683-94]. […] The activities of PEPCK and glucose 6-phosphatase in liver are measured by means of direct enzymatic assays of homogenized liver tissue as described by Andrikopoulos S et al. (1993) Diabetes 42: 1731-1736. Alternatively, expression levels of the corresponding genes are determined by Northern blot analysis or RT-PCR as described above.

cholesterol-fed rats = experiment: Circulating TSH, cholesterol-fed rats, 7 days; assay type: in vivo, rat; conditions: cholesterol-fed rats treated for 7 days; 30% decrease of TSH
Source text: as §1

cholesterol-fed rat [9] = conditions: ED15 for heart rate compared to ED50 for cholesterol lowering; cited from earlier work

With `Cc1cc(OC[P@@]2(=O)OCC[C@@H](c3cccc(Cl)c3)O2)cc(C)c1Cc1ccc(O)c(C(C)C)c1` [Compound 13-1-cis, Cis (S)-2-[(3,5-Dimethyl-4-(4′-hydroxy-3′-iso-propylbenzyl)phenoxy)methyl]-4-(3-Chlorophenyl)-2-oxo-2λ^5-[1,3,2]-dioxaphosphinane] the “TI Improvement, ED15 HR” value (ZDF rats [1]; ZDF) was greater than 39, the “TI Improvement, ED25 LV dP/dt” value (ZDF rats [1]; ZDF) was greater than 102 and the “calculated TI in a non-metabolically challenged animal with respect to LV dP/dt” value (ZDF rats [1]) was > 10,000. The “calculated TI in a non-metabolically challenged animal with respect to heart rate” value (ZDF rats [1]) was greater than 3900, the cholesterol lowering [2] was “significant lowering of cholesterol” and the “HR, LV dP/dt and aortic pressure compared to vehicle” value (Sprague Dawley (SD) rat) was “not significantly different compared to vehicle treated animals”. The “heart weight and heart weight normalized to body weight” value (Sprague Dawley (SD) rat) was “no significant changes”.

In the case of `Cc1cc(OCP(=O)(O)O)cc(C)c1Cc1ccc(O)c(C(C)C)c1` [Compound 7, [3,5-dimethyl-4-(4′-hydroxy-3′-iso-propylbenzyl)phenoxy]-methylphosphonic acid], the “decrease in hepatic triglyceride content” value (Normal rats) was 64%, the “microvesicular steatosis (H&E liver sections)” value (ZDF rats [3]) was “dose dependent reduction in the microvesicular steatosis” and the TSH vs vehicle (ZDF rats [4]) was “no statistically significant difference from vehicle”. The TSH (mice) was “no decrease in TSH was observed”, the “total cholesterol at day 7” value [5] was “cholesterol lowering effects” and the “total cholesterol at day 14” value [5] was “cholesterol lowering effects”. The “cardiovascular parameters (heart rate, LV dP/dt, blood pressure)” value ([5]; day 7 or day 14) was “no changes in any of the cardiovascular parameters”, the “Cardiac GPDH activity” value (cholesterol-fed rat [6]; Compound 17 at 1 mg/kg/day, compound 7 only at 100 mg/kg) was “trend towards increased heart GPDH activity” and the “therapeutic window (efficacy vs toxicity)” value (cholesterol-fed rat [6]; cholesterol lowering vs cardiac hypertrophy, induction of heart GPDH) was 10-to 100 fold.

Molecule `Cc1cc(C(=O)CP(=O)(O)O)cc(C)c1Cc1ccc(F)c(C(C)C)c1` [Compound 41-2] has a pKi [7] of less than 5.70 and a pKi [8] of less than 5.70.

With `CC(C)c1cc(Oc2c(Cl)cc(CC(=O)O)cc2Cl)ccc1O` [Compound 18, 3,5-dichloro-4-[4′-hydroxy-3′-iso-propylphenoxy]-benzeneacetic acid, reference compound] the “TI for LV dP/dt” value (ZDF rats [1]; ZDF, po) was 0.15, the “therapeutic index with respect to heart rate” value (ZDF rats [1]; ZDF, po) was 0.4 and the serum cholesterol (cholesterol fed rats) was “significantly decreased serum cholesterol”. For the same molecule, the “therapeutic index of TSH levels” value (cholesterol-fed rats) was 0.4, the “HR, LV dP/dt and aortic pressure compared to vehicle” value (Sprague Dawley (SD) rat) was “marked and statistically significant increases” and the “therapeutic index (TI) with respect to heart rate increases” value (cholesterol-fed rat [9]) was 40.

Molecule `Cc1cc(CCP(=O)(O)O)cc(C)c1Oc1ccc(F)c(C(C)C)c1` [Compound 42-2] has a pKi [7] of less than 5.70 and a pKi [8] of less than 5.70.
